# Data as given in publication PMC10631261 (Chemical Science, 2023).
# Read-outs that look alike come from different tables or passages of the source.
# Key:
# PHD2 = PHD2 (Homo sapiens, UniProt Q9GZT9); experiment: biochemical
# Method: (§1) 3. Biochemical procedures
# (§2) Protein production and purification
# (§3) PAGE analysis) according to established procedures.
# (§4) FIH, PHD2, AspH, JMJD5 and KDM4A inhibition assays
# (§5) The in vitro FIH,1, 2 PHD2,1 AspH,38 JMJD536 and KDM4A39 inhibition assays were performed as […]
# (§6) KDM4A). Synthetic peptide substrates were used: HIF-1α C-terminal transactivation domain fragment […]
# (§7) H3Lys9 bearing three methyl groups at the N ϵ position, H3Lys4 substituted by an Ala and H3Lys14 substituted by an Ile residue) for KDM4A.39 Peptides were prepared as C-terminal amides by GL Biochem (Shanghai) Ltd. Peptide hydroxylation in the case of FIH, PHD2, AspH and JMJD5 (+16 Da mass shift) or peptide demethylation in the case of KDM4A ( -14 Da mass shift) was monitored by SPE-MS. […]
# KDM4A = KDM4A (Homo sapiens, UniProt O75164); experiment: biochemical; type: biochemical
# Chain of KDM4A (O75164 1-359): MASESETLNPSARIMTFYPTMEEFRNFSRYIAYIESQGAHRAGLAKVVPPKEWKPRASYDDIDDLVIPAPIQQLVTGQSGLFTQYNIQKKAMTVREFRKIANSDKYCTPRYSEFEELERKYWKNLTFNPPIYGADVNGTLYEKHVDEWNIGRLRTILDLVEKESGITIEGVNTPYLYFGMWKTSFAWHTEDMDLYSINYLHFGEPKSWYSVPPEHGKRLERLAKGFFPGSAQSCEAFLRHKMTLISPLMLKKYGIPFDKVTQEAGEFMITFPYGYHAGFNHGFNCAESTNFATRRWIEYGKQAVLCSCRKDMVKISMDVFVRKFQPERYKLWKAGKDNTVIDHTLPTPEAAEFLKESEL
# Excerpt: (§8) To investigate the potential of BNS for selective FIH inhibition, its selectivity was investigated with respect to other 2OG-dependent protein oxidising enzymes, that is PHD2, Jumonji-C domain-containing protein 5 (JMJD5), aspartate/asparagine-β-hydroxylase (AspH) and KDM4A, using reported SPE-MS inhibition assays.[58,61,69,70] In addition to PHD2 and KDM4A, we included AspH and JMJD5 in our selectivity studies, because AspH, like FIH, catalyses protein aspartate- and asparagine-residue hydroxylation (although in epidermal growth factor-like domains),[71,72] and because JMJD5 is structurally closely related to FIH.[73,74]
# as §1, §2, §3, §4, §5, §6, §7
# AspH [1] = target: T1, AspH (Homo sapiens, UniProt Q12797); conditions: cited from earlier work
# T1 sequence (Q12797 315-758): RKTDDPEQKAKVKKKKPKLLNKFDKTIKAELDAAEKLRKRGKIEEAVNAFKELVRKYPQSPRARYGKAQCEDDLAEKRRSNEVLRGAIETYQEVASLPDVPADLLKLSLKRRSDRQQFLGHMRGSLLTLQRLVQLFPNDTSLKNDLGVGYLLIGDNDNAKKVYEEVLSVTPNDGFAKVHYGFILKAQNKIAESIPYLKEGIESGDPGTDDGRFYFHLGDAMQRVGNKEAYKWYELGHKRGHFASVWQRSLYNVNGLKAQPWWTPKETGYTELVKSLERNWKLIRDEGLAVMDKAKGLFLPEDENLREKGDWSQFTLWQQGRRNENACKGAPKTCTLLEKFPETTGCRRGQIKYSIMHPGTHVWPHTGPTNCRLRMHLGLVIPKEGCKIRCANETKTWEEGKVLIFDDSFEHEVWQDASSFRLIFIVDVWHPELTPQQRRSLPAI
# JMJD5 [2] = target: T2, JMJD5 (Homo sapiens, UniProt Q8N371); parameters: method as in PMID 37292060; conditions: cited from earlier work
# T2 sequence (Q8N371 whole entry): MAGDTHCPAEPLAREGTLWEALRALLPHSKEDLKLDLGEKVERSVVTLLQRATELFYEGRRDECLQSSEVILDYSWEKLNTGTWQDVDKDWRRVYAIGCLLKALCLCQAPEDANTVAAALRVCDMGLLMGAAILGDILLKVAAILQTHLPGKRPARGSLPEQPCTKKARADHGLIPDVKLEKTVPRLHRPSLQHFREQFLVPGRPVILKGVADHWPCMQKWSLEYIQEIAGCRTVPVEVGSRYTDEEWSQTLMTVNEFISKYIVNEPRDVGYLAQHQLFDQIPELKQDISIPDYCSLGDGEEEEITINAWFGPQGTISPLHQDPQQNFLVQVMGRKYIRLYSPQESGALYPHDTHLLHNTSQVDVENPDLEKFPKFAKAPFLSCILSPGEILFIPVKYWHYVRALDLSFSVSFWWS
# FIH = target: T3, FIH (Homo sapiens, UniProt Q9NWT6); experiment: SPE-MS FIH inhibition assay; type: biochemical
# T3 construct: made in house
# T3 sequence (Q9NWT6 whole entry): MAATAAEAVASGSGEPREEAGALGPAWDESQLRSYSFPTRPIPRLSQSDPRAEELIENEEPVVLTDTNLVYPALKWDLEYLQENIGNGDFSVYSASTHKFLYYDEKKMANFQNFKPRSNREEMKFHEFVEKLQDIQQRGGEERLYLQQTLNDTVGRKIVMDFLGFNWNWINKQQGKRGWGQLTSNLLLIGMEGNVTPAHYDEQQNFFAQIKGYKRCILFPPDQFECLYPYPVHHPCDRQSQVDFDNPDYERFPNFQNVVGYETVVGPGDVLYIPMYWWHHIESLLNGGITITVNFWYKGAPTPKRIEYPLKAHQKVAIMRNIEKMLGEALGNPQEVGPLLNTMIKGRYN
# Method: as §2, §3, §4, §5, §6, §7
# AspH [3] = target: T1, AspH; experiment: biochemical
# Excerpt: as §8, §1, §2, §3, §4, §5, §6, §7
# JMJD5 [4] = target: T2, JMJD5; experiment: biochemical; conditions: read-out: JMJD5 IC50
# Excerpt: as §8, §1, §2, §3, §4, §5, §6, §7
# EGLN3 [5] = experiment: qRT-PCR of EGLN3 expression in Hep3B cells; type: cell-based, human
# Method: (§9) 4. Methods for cell studies […]
# (§10) in Minimum Essential Medium (MEM, GIBCO) with 10% fetal bovine serum (FBS, BI), 100 U/mL penicillin and 100 μg/mL streptomycin (1 × P/S, NCM Biotech). […]
# (§11) and 100 μg/mL streptomycin (1 × P/S, NCM Biotech).
# (§12) Quantitative PCR Analysis of Gene Expression […]
# (§13) treated with vehicle (DMSO) or an inhibitor (at the concentrations indicated) for 12 h. Total RNA was isolated from cells and tissues using Trizol regents (Vazyme, China). 1 μg RNA was used for reverse transcription using HiScript III RT SuperMix for qPCR (Vazyme, China). cDNAs were amplified in a ChamQ Universal SYBR qPCR Master Mix (Vazyme, China). Quantitative PCR (qPCR) was performed on […]
# (§14) a ABI QuantStudio 3 system.
# (§15) The relative amount of mRNA was calculated after
# (§16) 3T3-L1 derived adipocytes. […]
# EGLN3 [6] = experiment: qRT-PCR of EGLN3 expression in 786-O cells; type: cell-based; conditions: VHL-deficient 786-O cells
# Method: as §9, §10, §11, §12, §13, §14, §15, §16
# SLC2A1 = experiment: qRT-PCR of SLC2A1 expression in Hep3B cells; type: cell-based, human
# Method: as §9, §10, §11, §12, §13, §14, §15, §16
# CA9 = experiment: qRT-PCR of CA9 expression in Hep3B cells; type: cell-based, human
# Method: as §9, §10, §11, §12, §13, §14, §15, §16
# EPO = experiment: qRT-PCR of EPO expression in Hep3B cells; type: cell-based, human
# Method: as §9, §10, §11, §12, §13, §14, §15, §16
# [7] = system: 3T3-L1 derived adipocytes; experiment: Cellular triglyceride (TG) colorimetric assay; type: cell-based; conditions: 50 μM
# Method: as §9, §10
# (§17) and 100 μg/mL streptomycin (1 × P/S, NCM Biotech). […]
# (§18) 3T3-L1 derived adipocytes.
# (§19) 10% newborn calf serum (NCS, GIBCO), 100 U/mL penicillin and 100 μg/mL streptomycin (1 × P/S, NCM […]
# (§20) The 3T3-L1 cells were strictly subcultured before they
# Subcultures of 3T3 -L1 cells were routinely cultured in DMEM medium containing 10% NCS for two days, and then the cells were cultured in DMEM containing 10% FBS, 0.5 mM 3 -isobutyl-1-methylxanthine, 1 μM dexamethasone, 10 μg/mL insulin and 2 μM rosiglitazone for another two days. Subsequently, the cells were cultured in DMEM containing 10% FBS and 10 μg/mL insulin for two days. After these procedures, the cells were maintained in […]
# To investigate the effect of inhibitors on adipocytes, 3T3-L1-derived adipocytes were treated with vehicle (DMSO) or with an inhibitor (at the concentrations indicated) for 48 h. […]
# Cellular TG level assay for 3T3 -L1 derived adipocytes.
# The 3T3-L1-derived adipocytes were washed with PBS, then the cells were lysed. And then, the cellular TG level was determined by using a cellular triglyceride assay kit (Applygen, China).
# Oil Red O staining for 3T3-L1 derived adipocytes.
# [8] = system: 3T3-L1 derived adipocytes; type: cell-based
# Method: as §9, §10, §17, §18, §19, §20
# Subcultures of 3T3 -L1 cells were routinely cultured in DMEM medium containing 10% NCS for two days, and then the cells were cultured in DMEM containing 10% FBS, 0.5 mM 3 -isobutyl-1-methylxanthine, 1 μM dexamethasone, 10 μg/mL insulin and 2 μM rosiglitazone for another two days. Subsequently, the cells were cultured in DMEM containing 10% FBS and 10 μg/mL insulin for two days. After these procedures, the cells were maintained in DMEM containing 10% FBS. T he last induction procedure was repeated 2 -3 times until lipid droplets […]
# Viability Assay for 3T3-L1 derived adipocytes.
# To investigate the effect of inhibitors on adipocytes, 3T3-L1-derived adipocytes were treated with vehicle (DMSO) or with an inhibitor (at the concentrations indicated) for 48 h. Cell viability was […]
# Microplate Reader (Tecan) at OD 450 nm. […]
# Chain of PHD2 (Q9GZT9 181-426): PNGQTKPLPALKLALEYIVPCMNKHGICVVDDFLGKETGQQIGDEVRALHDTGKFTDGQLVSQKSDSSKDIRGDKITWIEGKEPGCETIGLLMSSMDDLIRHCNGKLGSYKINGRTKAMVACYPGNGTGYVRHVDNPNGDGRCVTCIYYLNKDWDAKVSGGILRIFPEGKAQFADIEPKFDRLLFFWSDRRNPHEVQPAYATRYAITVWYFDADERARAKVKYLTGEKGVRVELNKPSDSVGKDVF
smiles,measurement,setting,value
"O=C(O)C(=O)N[C@H](Cc1ccccc1)C(=O)O [NOFD, N-oxalyl-D-phenylalanine, reference compound]",IC50,PHD2,> 100 µM
same,IC50,KDM4A,14.1 µM
same,IC50,AspH [1],15.5 µM
same,IC50,JMJD5 [2],> 100 µM
O=C(O)Cc1csc(=NC(=O)C2CCN(S(=O)(=O)Cc3ccccc3)C2)n1O (stereo not shown) [compound 42],IC50,FIH,0.28 ± 0.02 µM
same,"FIH inhibition potency relative to 2,4-PDCA (more potent)","FIH; IC50 comparison with 2,4-PDCA",~10 fold
same,selectivity for FIH inhibition over AspH inhibition,FIH; as judged by IC50 values,> 100 fold
same,selectivity for FIH inhibition over JMJD5 inhibition,FIH; as judged by IC50 values,~25 fold
same,selectivity for FIH inhibition over KDM4A inhibition,FIH; as judged by IC50 values,> 300 fold
same,selectivity for FIH inhibition over PHD2 inhibition,FIH; as judged by IC50 values,~25 fold
same,IC50,PHD2,6.9 ± 0.5 µM
same,IC50,AspH [3],43.1 ± 18.7 µM
same,IC50,JMJD5 [4],7.2 ± 2.8 µM
same,IC50,KDM4A,> 100 µM
same,increase of EGLN3 expression relative to DMSO,"EGLN3 [5]; 50 μM, 12 h, qRT-PCR",~2.5 fold
same,EGLN3 upregulation on co-administration with FG-4592 relative to compound alone,EGLN3 [5]; with FG-4592,greater increase
same,effect on EGLN3 gene expression,EGLN3 [6],upregulation of EGLN3
same,increase of SLC2A1 levels,"SLC2A1; qPCR, relative to DMSO",~1.5 fold
same,SLC2A1 gene expression in combination with FG-4592,SLC2A1; with FG-4592,no synergistic effect
same,upregulation of CA9,"CA9; qPCR, relative to DMSO",no response
same,CA9 levels in combination with FG-4592 compared with FG-4592 alone,CA9; with FG-4592,increase
same,upregulation of EPO,"EPO; qPCR, relative to DMSO",no response
same,EPO levels in combination with FG-4592 compared with FG-4592 alone,"EPO; with FG-4592, to a lesser extent than CA9",increase
same,reduction in cellular TG levels,[7],~30%
same,cytotoxicity (cell viability),[8],Neither 42 and 42b exhibited apparent cytotoxicity
